According to patent publication EP1200395B1, “UREA DERIVATIVES AS INHIBITORS OF CCR-3 RECEPTOR” (KIRIN BEER KABUSHIKI KAISHA, priority 1999, dated 2001):
Blank lines part the entries; values can stand above or below the compound they belong to.

Target: T1, CCR-3 (Homo sapiens, UniProt P51677)
T1 sequence (P51677 1-355): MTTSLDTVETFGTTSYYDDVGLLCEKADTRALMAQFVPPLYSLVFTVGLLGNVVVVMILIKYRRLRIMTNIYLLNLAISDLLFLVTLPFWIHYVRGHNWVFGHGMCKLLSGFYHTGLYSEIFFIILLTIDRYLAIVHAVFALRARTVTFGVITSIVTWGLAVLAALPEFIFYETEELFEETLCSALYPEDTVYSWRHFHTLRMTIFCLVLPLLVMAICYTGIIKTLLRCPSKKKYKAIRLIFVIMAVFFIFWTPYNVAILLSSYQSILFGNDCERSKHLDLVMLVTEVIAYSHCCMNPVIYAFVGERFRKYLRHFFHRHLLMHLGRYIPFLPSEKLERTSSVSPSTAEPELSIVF
Assay: Eotaxin-induced chemotaxis of CCR-3 transfectant cells (CCR3/U937)
Type: cell-based
Parameters: expressed in transfected cells; host or cells: U937
Details: eotaxin 1 x 10^-9 M; for Chemotaxis Assay 10 µM (inhibition %) / inhibition at 10 µM: 10 µM test compound; for inhibition at 10 µM: U-937; for Chemotaxis Assay 0.1 µg/ml (inhibition %): test compound 0.1 µg/ml, CCR3/U937 transfectants, 37 °C, 1 hour
Method: The inhibitory activity of the compounds against eotaxin-induced chemotaxis was determined by measuring the inhibition of migration of CCR-3 transfectant cells (CCR3/U937), using a minor modification of the method described by Ohashi, H. et al., Int Arch Allergy Immunol. […] The chemotaxis assay was performed in a 24-well culture plate. Human eotaxin suspended in assay medium was added to the wells at 1 x 10^-9 M along with test compounds at various concentrations. For a positive control, eotaxin was added to the wells without a test compound, and for a negative control, neither eotaxin nor a test compound was added to the wells. Chemotaxicell (Kurabo Co., Ltd.) having 5 micrometers pore size were inserted into each well and 100 micro liters of CCR-3 transfectant cells suspension were added to the top chamber. The plates were incubated at 37 °C for 1 hour. After incubation, migrated cells in lower wells were diluted and counted by particle size distribution analyzer (CDP-500, Sysmex Co., Ltd.).

Compound: O=C(O)CCCN(CCCNC(=O)Nc1ccc(Br)cc1)CCc1c[nH]c2ccccc12 [Compound 74]
- Chemotaxis Assay 10 µM (inhibition %) (CCR3/U937 cells (Table 3a)): 50%

Compound: O=C(NCCCN(CCCc1nnn[nH]1)C1CCCc2ccccc21)Nc1ccc(Br)cc1 (stereo not shown) [Compound 218, 3-[[3-(4-Bromophenylureido)propyl](1,2,3,4-tetrahydro-1-naphthyl)amino]-1-(1H-tetrazol-5-yl)propane]
- inhibition at 10 µM (CCR3/U937 cells (Table 3a)): 99%

Compound: COc1ccc(NC(=O)NCCCN(CCCC(=O)O)C2CCCc3ccccc32)c(OC)c1 (stereo not shown) [Compound 86]
- Chemotaxis Assay 10 µM (inhibition %) (CCR3/U937 cells (Table 3a)): 37%

Compound: CS(=O)(=O)NC(=O)CCCN(CCCNC(=O)Nc1ccc(Br)cc1)C1CCCc2ccccc21 (stereo not shown) [Compound 210]
- Chemotaxis Assay 10 µM (inhibition %) (CCR3/U937 cells (Table 3a)): 100%

Compound: O=C(O)CCCN(CCCNC(=O)Nc1ccc(Cl)c(C(F)(F)F)c1)C1CCCc2ccccc21 (stereo not shown) [Compound 84]
- Chemotaxis Assay 10 µM (inhibition %) (CCR3/U937 cells (Table 3a)): 100%

Compound: CC[N+](CCCNC(=O)Nc1ccc(Br)cc1)(CCOCCOC)CCc1ccc(Cl)cc1Cl.[I-] (stereo not shown) [compound 374]
- Chemotaxis Assay 0.1 µg/ml (inhibition %): 100%

Compound: COC(=O)CCCN(CCCNC(=O)Nc1cccc2ccccc12)C1CCCc2ccccc21 (stereo not shown) [Compound 59]
- Chemotaxis Assay 10 µM (inhibition %) (CCR3/U937 cells (Table 3a)): 87%

Compound: COC(=O)CCCN(CCCNC(=O)Nc1ccc(Br)cc1)[C@@H]1CCc2ccccc21 [Compound 178, Methyl 4-[[3-(4-bromophenylureido)propyl][(1R)-1-indanyl]amino]butylate]
- Chemotaxis Assay 10 µM (inhibition %) (CCR3/U937 cells (Table 3a)): 100%

Compound: COC(=O)CCCN(CCCNC(=O)Nc1ccc(Br)cc1)[C@@H]1CCCc2ccccc21 [Compound 180, Methyl 4-[[3-(4-bromophenylureido)propyl][(1R)-1,2,3,4-tetrahydro-1-naphthyl]amino]burylate]
- Chemotaxis Assay 10 µM (inhibition %) (CCR3/U937 cells (Table 3a)): 100%

Compound: O=C(O)CCCN(CCCNC(=O)Nc1ccc(Br)cc1)Cc1cccs1 [Compound 69]
- Chemotaxis Assay 10 µM (inhibition %) (CCR3/U937 cells (Table 3a)): 81%

Compound: CCN(CCCCNC(=O)Nc1ccc([N+](=O)[O-])cc1)CCc1ccc(Cl)cc1 [Compound 5]
- Chemotaxis Assay 10 µM (inhibition %) (CCR3/U937 cells (Table 3a)): 99%

Compound: CC(c1ccccc1)N(CCCNC(=O)Nc1ccc(Br)cc1)CCCC(=O)O (stereo not shown) [Compound 77]
- Chemotaxis Assay 10 µM (inhibition %) (CCR3/U937 cells (Table 3a)): 76%

Compound: CC[N+](CCCNC(=O)Nc1ccc(Cl)c(Cl)c1)(CCOCCOC)CCc1cccc(F)c1.[I-] (stereo not shown) [compound 360]
- Chemotaxis Assay 0.1 µg/ml (inhibition %): 70%

Compound: CC(=O)OCCCN(CCCNC(=O)Nc1ccc(Br)cc1)C1CCCc2ccccc21 (stereo not shown) [Compound 215]
- Chemotaxis Assay 10 µM (inhibition %) (CCR3/U937 cells (Table 3a)): 89%

Compound: CC(c1ccc(F)cc1)N(CCCNC(=O)Nc1ccc(Br)cc1)CCCC(=O)O (stereo not shown) [Compound 269, 4-[[3-(4-Bromophenylureido)propyl][1-(4-fluorophenyl)ethyl]amino]butanoic acid]
- inhibition at 10 µM (CCR3/U937 cells (Table 3a)): 100%

Compound: CC(c1ccc([N+](=O)[O-])cc1)N(CCCNC(=O)Nc1ccc(Br)cc1)CCCC(=O)O (stereo not shown) [Compound 259]
- Chemotaxis Assay 10 µM (inhibition %) (CCR3/U937 cells (Table 3a)): 100%

The next lines start with the values.

- Chemotaxis Assay 10 µM (inhibition %) (CCR3/U937 cells (Table 3a)): 100%
Compound: CC(C)CN(CCCNC(=O)Nc1ccccc1)CCc1ccc(Cl)cc1 [Compound 239]

- Chemotaxis Assay 10 µM (inhibition %) (CCR3/U937 cells (Table 3c)): 59%
Compound: CC[N+](CCCNC(=O)Nc1ccccc1)(CCc1ccc(Cl)cc1)Cc1ccc(OCc2ccccc2)c(OCc2ccccc2)c1.[I-] (stereo not shown) [compound 350]

- inhibition at 10 µM (CCR3/U937 cells (Table 3c)): 93%
Compound: CC[N+](CCCNC(=O)Nc1ccccc1)(CCc1ccc(Cl)cc1)Cc1ccc(C(=O)O)cc1 (stereo not shown) [Compound 322, [3-(Phenylureido)propyl][2-(4-chlorophenyl)ethyl][4-(carboxy)benzyl]ethylammonium iodide]

- Chemotaxis Assay 0.1 µg/ml (inhibition %): 59%
Compound: CC[N+](CCCNC(=O)Nc1ccccc1)(CCc1ccc(Cl)cc1)CC1CCC1.[I-] (stereo not shown) [compound 417]

- Chemotaxis Assay 10 µM (inhibition %) (CCR3/U937 cells (Table 3c)): 100%
Compound: CC[N+](CCCNC(=O)Nc1ccccc1)(CCc1ccc(Cl)cc1)CC(C)C.[I-] (stereo not shown) [compound 318]

- Chemotaxis Assay 10 µM (inhibition %) (CCR3/U937 cells (Table 3c)): 100%
Compound: CCOC(=O)CCCCC[N+](CC)(CCCNC(=O)Nc1ccccc1)CCc1ccc(Cl)cc1.[I-] (stereo not shown) [compound 321]

- inhibition at 10 µM (CCR3/U937 cells (Table 3c)): 67%
Compound: Cc1ccc(C[N+](CCCNC(=O)Nc2ccccc2)(CCc2ccc(Cl)cc2)Cc2ccc(C)cc2)cc1 [Compound 296, [3-(Phenylureido)propyl][2-(4-chlorophenyl)ethyl]bis(4-methylbenzyl)ammonium iodide]

- Chemotaxis Assay 0.1 µg/ml (inhibition %): 68%
Compound: CC[N+](CCF)(CCCNC(=O)Nc1ccc(Br)cc1)CCc1cccc(F)c1.[I-] (stereo not shown) [compound 385]

- Chemotaxis Assay 0.1 µg/ml (inhibition %): 42%
Compound: C=C(C)C[N+](CC)(CCCNC(=O)Nc1ccccc1)CCc1ccc(Cl)cc1.[I-] (stereo not shown) [compound 422]

- Chemotaxis Assay 10 µM (inhibition %) (CCR3/U937 cells (Table 3c)): 100%
Compound: CC[N+](CCCNC(=O)Nc1ccccc1)(CCc1ccc(Cl)cc1)Cc1ccc(C(=O)OC)cc1.[I-] (stereo not shown) [Compound 303]

- inhibition at 10 µM (CCR3/U937 cells (Table 3a)): 100%
Compound: CCN(CCCNC(=O)Nc1ccccc1OC)CCc1ccc(Cl)cc1 [Compound 9]

- inhibition at 10 µM (CCR3/U937 cells (Table 3c)): 100%
Compound: CC[N+](CCCNC(=O)Nc1ccccc1)(CCc1ccc(Cl)cc1)Cc1cc(F)ccc1F (stereo not shown) [Compound 351, [3-(Phenylureido)propyl][2-(4-chlorophenyl)ethyl](2,5-difluorobenzyl)ethylammonium iodide]

- Chemotaxis Assay 0.1 µg/ml (inhibition %): 99%
Compound: CC[N+](CCCNC(=O)Nc1ccccc1)(CCOCCOC)CCc1ccc(Cl)c(Cl)c1.[I-] (stereo not shown) [compound 415]

- Chemotaxis Assay 0.1 µg/ml (inhibition %): 98%
Compound: CC[N+](CCF)(CCCNC(=O)Nc1ccc(Br)cc1)CCc1cccc(Cl)c1.[I-] (stereo not shown) [compound 382]

- Chemotaxis Assay 10 µM (inhibition %) (CCR3/U937 cells (Table 3a)): 81%
Compound: CC(=O)OCCN(CCCNC(=O)Nc1ccccc1)CCc1ccc(Cl)cc1 [Compound 244]

- Chemotaxis Assay 0.1 µg/ml (inhibition %): 43%
Compound: CC[N+](CCF)(CCCNC(=O)Nc1ccc(Br)cc1)CCc1ccc(Cl)cc1Cl.[I-] (stereo not shown) [compound 383]

- Chemotaxis Assay 0.1 µg/ml (inhibition %): 76%
Compound: CC[N+](CCF)(CCCNC(=O)Nc1ccccc1)CCc1ccc(Cl)cc1Cl.[I-] (stereo not shown) [compound 433]

- inhibition at 10 µM (CCR3/U937 cells (Table 3a)): 99%
Compound: CCCN(CCCNC(=O)Nc1ccccc1)CCc1ccc(Cl)cc1 [Compound 10, N-Phenylcarbamoyl-N'-[2-(4-chlorophenyl)ethyl]-N'-propyl-1,3-diaminopropane]

- Chemotaxis Assay 10 µM (inhibition %) (CCR3/U937 cells (Table 3c)): 100%
Compound: CC[N+](CCCNC(=O)Nc1ccccc1)(CCc1ccc(Cl)cc1)Cc1cccc([N+](=O)[O-])c1.[I-] (stereo not shown) [compound 338]

- Chemotaxis Assay 10 µM (inhibition %) (CCR3/U937 cells (Table 3a)): 86%
Compound: O=C(NCCCN(CCCO)CCc1ccc(Cl)cc1)Nc1ccccc1 [Compound 219]

- Chemotaxis Assay 0.1 µg/ml (inhibition %): 96%
Compound: CCC(CC)C[N+](CC)(CCCNC(=O)Nc1ccc(OC)cc1)CCc1ccc(Cl)c(Cl)c1.[I-] (stereo not shown) [compound 449]

- Chemotaxis Assay 10 µM (inhibition %) (CCR3/U937 cells (Table 3c)): 100%
Compound: CC[N+](CCCO)(CCCNC(=O)Nc1ccccc1)CCc1ccc(Cl)cc1.[I-] (stereo not shown) [Compound 299]

- Chemotaxis Assay 10 µM (inhibition %) (CCR3/U937 cells (Table 3c)): 100%
Compound: CC[N+](CC)(CCCNC(=O)Nc1ccccc1)Cc1ccccc1.[I-] [Compound 305]

- inhibition at 10 µM (CCR3/U937 cells (Table 3a)): 69%
Compound: O=C(NCCCN(CCc1ccc(Cl)cc1)CCc1ccc(Cl)cc1)Nc1ccccc1 [Compound 238, [3-(Phenylureido)propyl]bis[2-(4-chlorophenyl)ethyl]amine]
